Test results: US20130029928A1 (priority 2010, published 2013)
Like-named read-outs stand apart in the source and are kept apart here.

Assay: Phase I study CXR1002-001: plasma pharmacokinetics (LC-MS/MS)
Format: in vivo, human
Details: human, plasma, oral; for concentration at 843 h / concentration at 844 h / concentration at 864 h / concentration at 2 h / concentration at 3 h / concentration at 4 h / concentration at 24 h / concentration at 168 h / concentration at 170 h / concentration at 171 h / concentration at 172 h / concentration at 192 h / concentration at 336 h / concentration at 338 h / concentration at 339 h / concentration at 340 h / concentration at 360 h / concentration at 506 h / concentration at 507 h / concentration at 508 h / concentration at 528 h / concentration at 672 h / concentration at 674 h / concentration at 675 h / concentration at 676 h / concentration at 696 h / concentration at 840 h / concentration at 842 h / concentration at 504 h: read-out: Concentration; for concentration at 864 h: 864 hr (Day 37); for concentration at 24 h: 24 hr (Day 2); for concentration at 168 h: 168 hr (Day 8); for concentration at 192 h: 192 hr (Day 9); for concentration at 336 h: 336 hr (Day 15); for concentration at 360 h: 360 hr (Day 16); for concentration at 528 h: 528 hr (Day 23); for concentration at 672 h: 672 hr (Day 29); for concentration at 696 h: 696 hr (Day 30); for concentration at 840 h: 840 hr (Day 36); for concentration at 504 h: 504 hr (Day 22)
Source text: PK samples, PD (fasting) samples, blood glucose, and blood triglyceride samples, were taken over a 6-week period.
Dose limiting toxicity (DLT) will be based on the toxicity assessments over the first 3-week period of the repeat dosing schedule. PK samples (single blood sample) were taken on the following basis: • Every 6 weeks during the repeat dosing phase • If dosing is interrupted or stopped, samples will be taken at intervals according to patient convenience • PK sampling for safety evaluation may take place at any time, as clinically indicated
Plasma samples were collected after the single 50 mg dose at the following timepoints: Pre-dose, and then 0.25, 0.5, 0.75, 1, 1.5, 2, 3, 4, 6, 24, 48, and 72 hours after administration and then once weekly at weeks 2, 3, 4, 5, and 6 (days 8, 15, 22, 29, and 36). For patients treated with the weekly repeat dose, plasma samples were collected at the following timepoints: Pre-dose and then 2, 3, 4 and 24 hours after administration for a total of 6 weeks. Thereafter a single sample was collected every 6 weeks for monitoring of exposure during long term treatment. Plasma samples were processed at site and stored at −80° C. prior to batch shipment to the analytical laboratory.

[1] = 200 mg, Patient 009 Dose 200 mg
[2] = 200 mg, Patient 010 Dose 200 mg
[3] = 300 mg, Patient 011 Dose 300 mg
[4] = 300 mg, Patient 012 Dose 300 mg
[5] = 300 mg, Patient 013 Dose 300 mg
[6] = 300 mg, Patient 014 Dose 300 mg

## O=C(O)C(F)(F)C(F)(F)C(F)(F)C(F)(F)C(F)(F)C(F)(F)C(F)(F)F [CXR1002]
[1]
  concentration at 843 h: 373 µM
  concentration at 844 h: 329 µM
  concentration at 864 h: 346 µM
200 mg, Patient 009 Dose 200 mg, Day 92
  concentration at 92 day: 456 µM
200 mg, Patient 009 Dose 200 mg, Week 19
  concentration at 19 week: 618 µM
200 mg, Patient 009 Dose 200 mg, Week 25
  concentration at 25 week: 501 µM
200 mg, Patient 009 Dose 200 mg, Week 32
  concentration at 32 week: 540 µM
200 mg, Patient 010 Dose 200 mg, 0 hr
  concentration at 0 h: 0 nM
[2]
  concentration at 2 h: 21.1 µM
  concentration at 3 h: 30.4 µM
  concentration at 4 h: 33.6 µM
  concentration at 24 h: 58.6 µM
  concentration at 168 h: 51 µM
  concentration at 170 h: 81.7 µM
  concentration at 171 h: 81.4 µM
  concentration at 172 h: 119 µM
  concentration at 192 h: 101 µM
  concentration at 336 h: 98.8 µM
  concentration at 338 h: 118 µM
  concentration at 339 h: 103 µM
  concentration at 340 h: 66.7 µM
  concentration at 360 h: 175 µM
  concentration at 506 h: 207 µM
  concentration at 507 h: 276 µM
  concentration at 508 h: 187 µM
  concentration at 528 h: 191 µM
  concentration at 672 h: 192 µM
  concentration at 674 h: 193 µM
  concentration at 675 h: 237 µM
  concentration at 676 h: 231 µM
  concentration at 696 h: 256 µM
  concentration at 840 h: 243 µM
  concentration at 842 h: 188 µM
  concentration at 843 h: 232 µM
  concentration at 844 h: 223 µM
  concentration at 864 h: 221 µM
[3]
  concentration at 2 h: 101 µM
  concentration at 3 h: 107 µM
  concentration at 4 h: 112 µM
  concentration at 24 h: 95.9 µM
  concentration at 168 h: 57.9 µM
  concentration at 170 h: 112 µM
  concentration at 171 h: 122 µM
  concentration at 172 h: 138 µM
  concentration at 192 h: 178 µM
  concentration at 336 h: 131 µM
  concentration at 338 h: 160 µM
  concentration at 339 h: 160 µM
  concentration at 340 h: 147 µM
  concentration at 360 h: 237 µM
  concentration at 504 h: 145 µM
  concentration at 506 h: 204 µM
  concentration at 507 h: 288 µM
  concentration at 508 h: 244 µM
  concentration at 672 h: 255 µM
  concentration at 674 h: 291 µM
  concentration at 675 h: 304 µM
  concentration at 676 h: 243 µM
  concentration at 696 h: 326 µM
  concentration at 840 h: 270 µM
  concentration at 842 h: 384 µM
  concentration at 843 h: 350 µM
  concentration at 844 h: 282 µM
  concentration at 864 h: 387 µM
300 mg, Patient 011 Dose 300 mg, Week 12
  concentration at 12 week: 574 µM
[4]
  concentration at 2 h: 91.4 µM
  concentration at 3 h: 93.5 µM
  concentration at 4 h: 123 µM
  concentration at 24 h: 74 µM
  concentration at 168 h: 64.8 µM
  concentration at 171 h: 148 µM
  concentration at 172 h: 126 µM
  concentration at 192 h: 152 µM
  concentration at 336 h: 141 µM
  concentration at 339 h: 196 µM
  concentration at 340 h: 213 µM
  concentration at 360 h: 218 µM
  concentration at 504 h: 181 µM
  concentration at 506 h: 278 µM
  concentration at 507 h: 261 µM
  concentration at 508 h: 221 µM
  concentration at 528 h: 263 µM
  concentration at 672 h: 303 µM
  concentration at 674 h: 340 µM
  concentration at 675 h: 373 µM
  concentration at 676 h: 292 µM
  concentration at 696 h: 334 µM
[5]
  concentration at 2 h: 82.7 µM
  concentration at 3 h: 76 µM
  concentration at 4 h: 85.3 µM
  concentration at 24 h: 79.6 µM
[6]
  concentration at 2 h: 131 µM
  concentration at 3 h: 121 µM
  concentration at 4 h: 100 µM
  concentration at 24 h: 102 µM
  concentration at 168 h: 79.6 µM
  concentration at 170 h: 154 µM
  concentration at 171 h: 178 µM
  concentration at 172 h: 180 µM
  concentration at 192 h: 178 µM
  concentration at 336 h: 173 µM
  concentration at 338 h: 297 µM
  concentration at 339 h: 270 µM
  concentration at 340 h: 261 µM
  concentration at 504 h: 288 µM
  concentration at 506 h: 336 µM
  concentration at 507 h: 374 µM
  concentration at 528 h: 420 µM
  concentration at 672 h: 355 µM
  concentration at 674 h: 389 µM
  concentration at 675 h: 400 µM
  concentration at 676 h: 411 µM
  concentration at 696 h: 478 µM
  concentration at 840 h: 426 µM
  concentration at 842 h: 506 µM
